From US8247211B2, “Glycopeptide antibiotics” (American Cyanamid Company, priority 2001, dated 2012)

Legend:
[1] = system: Staphylococcus aureus-SMITH (GC 4543); test: Acute lethal infection in mice (ED50); assay type: in vivo; conditions: female CD-1 mice, intraperitoneal challenge, intravenous dose 30 min. after infection, 7 day survival ratios
Method in brief: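 ED50 derived from pooled 7-day survival in three separate experiments, five mice per dose level. Single intravenous dose 30 min after intraperitoneal infection of female CD-1 mice with enough bacteria to kill untreated animals in 24-48 h.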

Staphylococcus sp. = test: In vitro antibacterial evaluation: minimum inhibitory concentration (MIC), broth dilution method; assay type: cell-based; conditions: 18 hours at 35° C.
Method in brief: (§1)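 MIC by broth dilution in Mueller-Hinton II medium following NCCLS M7-A2. Inoculum was 5×10^5 CFU/mL and antibiotic was tested over 64-0.06 μg/mL. Gram-positive panel included clinical isolates resistant to methicillin, penicillin and/or vancomycin.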

Enterococcus sp. = test: as above; assay type: cell-based; conditions: 18 hours at 35° C.
Method in brief: as §1

Streptococcus sp. = test: as above; assay type: cell-based; conditions: 18 hours at 35° C.
Method in brief: as §1

Escherichia coli = test: as above; assay type: cell-based; conditions: 18 hours at 35° C.
Method in brief: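 Test strains, among them recent clinical isolates carrying methicillin, penicillin and/or vancomycin resistance, were inoculated at 5×10^5 CFU/mL. A broth dilution series spanning 64-0.06 μg/mL in Muller-Hinton II […] (NCCLS M7-A2) defined the MIC as the lowest growth-inhibiting concentration.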

[2] = Anatomic pathology (heart and kidney histopathology) in mice; assay type: in vivo, CD-1 mice; conditions: 20 mg/kg intravenously daily for 9 days, microscopic histopathology on day 10
Method in brief: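 Histopathology on H&E-stained, paraffin-embedded sections, subjectively scored (slight, mild, moderate, marked, severe) relative to untreated controls. Dosing: glycopeptide antibiotics 20 mg/kg intravenously once daily ×9 days in 20-day-old CD-1 mice, n=5 per group including vehicle.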

[3] = Enterococcus faecalis (ATCC 29212)
[4] = Enterococcus faecalis (GC 2242)
[5] = Enterococcus faecalis (GC 2691)
[6] = Enterococcus faecalis (GC 3059)
[7] = Enterococcus faecalis (GC 4552)
[8] = Enterococcus faecalis (GC 4553)
[9] = Enterococcus faecalis (GC 4554)
[10] = Enterococcus faecalis (GC 6189)
[11] = broth dilution, inoculum 5×10^5 CFU/mL
[12] = Streptococcus pneumoniae (ATCC 6301)
[13] = Streptococcus pneumoniae (GC 1894)
[14] = Streptococcus pneumoniae (GC 4565)

COc1ccc2cc(COCC3OC(OC4C(CO)OC(Oc5ccc(CC6NC(=O)C(C(C)c7ccccc7)NC(=O)CNC(=O)C(CO)NC(=O)C(C(O)C7CNC(=N)N7C7OC(CO)C(O)C(O)C7O)NC(=O)C(C(O)C7CNC(=N)N7)NC6=O)cc5)C(O)C4O)C(O)C(O)C3O)ccc2c1 (stereo not drawn) [Example 230, Cyclo[glycyl-β-methylphenylalanyl-O-[4-O-[6-O-[(6-methoxy-2-naphthyl)methyl]hexopyranosyl]hexopyranosyl]tyrosyl-3-(2-iminoimidazolidin-4-yl)seryl-3-(3-hexopyranosyl-2-iminoimidazolidin-4-yl)serylseryl]]
2 µg/mL: MIC Coagulase Negative Staphylococcus (GC 4551) (Staphylococcus sp.; Coagulase Negative Staphylococcus (GC 4551)) | MIC Staphylococcus aureus (ATCC 29213) (Staphylococcus sp.) | MIC Staphylococcus aureus (GC 1131) (Staphylococcus sp.) | MIC Staphylococcus aureus (GC 3051) (Staphylococcus sp.) | MIC Staphylococcus aureus (GC 3053) (Staphylococcus sp.) | MIC Staphylococcus aureus (GC 4542) (Staphylococcus sp.; Staphylococcus aureus (GC 4542)) | MIC Staphylococcus aureus (GC 4544) (Staphylococcus sp.) | MIC Enterococcus faecium (GC 4557) (Enterococcus sp.; Enterococcus faecium (GC 4557)) | MIC Enterococcus faecium (GC 4557) (Enterococcus sp.; [11])
0.12 µg/mL: MIC Streptococcus pneumoniae (ATCC 6301) (Streptococcus sp.; [12]) | MIC Streptococcus pneumoniae (GC 4565) (Streptococcus sp.; [14]) | MIC Streptococcus pneumoniae (ATCC 6301) (Streptococcus sp.; [11]) | MIC Streptococcus pneumoniae (GC 4565) (Streptococcus sp.; [11])
>64 µg/mL: MIC Escherichia coli (GC 4559) (Escherichia coli)
0: Anatomical Pathology (Day 10), Heart [2]
<0.06 µg/mL: MIC Streptococcus pneumoniae (GC 1894) (Streptococcus sp.; [13]) | MIC Streptococcus pneumoniae (GC 1894) (Streptococcus sp.; [11])
1 µg/mL: MIC Coagulase Negative Staphylococcus (GC 4547) (Staphylococcus sp.) | MIC Coagulase Negative Staphylococcus (GC 4549) (Staphylococcus sp.; Coagulase Negative Staphylococcus (GC 4549)) | MIC Staphylococcus aureus (GC 4541) (Staphylococcus sp.) | MIC Staphylococcus aureus (GC 4545) (Staphylococcus sp.) | MIC Staphylococcus aureus-SMITH (GC 4543) (Staphylococcus sp.) | MIC Staphylococcus haemolyticus (GC 4546) (Staphylococcus sp.; Staphylococcus haemolyticus (GC 4546)) | MIC Escherichia coli (GC 4560) (Escherichia coli; Escherichia coli (GC 4560))
0.5 µg/mL: MIC Coagulase Negative Staphylococcus (GC 4548) (Staphylococcus sp.; Coagulase Negative Staphylococcus (GC 4548)) | MIC Coagulase Negative Staphylococcus (GC 6257) (Staphylococcus sp.; Coagulase Negative Staphylococcus (GC 6257)) | MIC Streptococcus agalactiae (GC 4564) (Streptococcus sp.; Streptococcus agalactiae (GC 4564)) | MIC Streptococcus agalactiae (GC 4564) (Streptococcus sp.; [11])
4 µg/mL: MIC Enterococcus faecalis (GC 2691) (Enterococcus sp.; [5]) | MIC Enterococcus faecalis (GC 6189) (Enterococcus sp.; [10]) | MIC Enterococcus faecalis (GC 2691) (Enterococcus sp.; [11]) | MIC Enterococcus faecalis (GC 6189) (Enterococcus sp.; [11])
+++: Anatomical Pathology (Day 10), Kidney [2]
8 µg/mL: MIC Enterococcus avium (GC 4558) (Enterococcus sp.; Enterococcus avium (GC 4558)) | MIC Enterococcus faecalis (ATCC 29212) (Enterococcus sp.; [3]) | MIC Enterococcus faecalis (GC 2242) (Enterococcus sp.; [4]) | MIC Enterococcus faecalis (GC 3059) (Enterococcus sp.; [6]) | MIC Enterococcus faecalis (GC 4552) (Enterococcus sp.; [7]) | MIC Enterococcus faecalis (GC 4553) (Enterococcus sp.; [8]) | MIC Enterococcus faecalis (GC 4554) (Enterococcus sp.; [9]) | MIC Enterococcus faecium (GC 2243) (Enterococcus sp.; Enterococcus faecium (GC 2243)) | MIC Enterococcus faecium (GC 4556) (Enterococcus sp.; Enterococcus faecium (GC 4556)) | MIC Enterococcus avium (GC 4558) (Enterococcus sp.; [11]) | MIC Enterococcus faecalis (ATCC 29212) (Enterococcus sp.; [11]) | MIC Enterococcus faecalis (GC 2242) (Enterococcus sp.; [11]) | MIC Enterococcus faecalis (GC 3059) (Enterococcus sp.; [11]) | MIC Enterococcus faecalis (GC 4552) (Enterococcus sp.; [11]) | MIC Enterococcus faecalis (GC 4553) (Enterococcus sp.; [11]) | MIC Enterococcus faecalis (GC 4554) (Enterococcus sp.; [11]) | MIC Enterococcus faecium (GC 2243) (Enterococcus sp.; [11]) | MIC Enterococcus faecium (GC 4556) (Enterococcus sp.; [11])
0.25 µg/mL: MIC Streptococcus pyogenes (GC 4563) (Streptococcus sp.; Streptococcus pyogenes (GC 4563)) | MIC Streptococcus pyogenes (GC 4563) (Streptococcus sp.; [11])
0.12 mg/kg: median effective dose (ED50), Staphylococcus aureus-SMITH (GC 4543) [1]
64 µg/mL: MIC Escherichia coli (ATCC 25922) (Escherichia coli)

COc1ccc2cc(COC3C(CO)OC(OC4C(CO)OC(Oc5ccc(CC6NC(=O)C(C(C)c7ccccc7)NC(=O)CNC(=O)C(CO)NC(=O)C(C(O)C7CNC(=N)N7C7OC(CO)C(O)C(O)C7O)NC(=O)C(C(O)C7CNC(=N)N7)NC6=O)cc5)C(O)C4O)C(O)C3O)ccc2c1 (stereo not drawn) [Example 230a, Cyclo[glycyl-β-methylphenylalanyl-O-[4-O-[4-O-[(6-methoxy-2-naphthyl)methyl]hexopyranosyl]hexopyranosyl]tyrosyl-3-(2-iminoimidazolidin-4-yl)seryl-3-(3-hexopyranosyl-2-iminoimidazolidin-4-yl)serylseryl]]
0.06 mg/kg: median effective dose (ED50), Staphylococcus aureus-SMITH (GC 4543) [1]
1 to 2 µg/mL: MIC Staphylococcus aureus (ATCC 29213) (Staphylococcus sp.) | MIC Staphylococcus aureus (GC 3051) (Staphylococcus sp.) | MIC Staphylococcus aureus (GC 3053) (Staphylococcus sp.) | MIC Staphylococcus aureus (GC 4544) (Staphylococcus sp.) | MIC Enterococcus faecium (GC 4557) (Enterococcus sp.; Enterococcus faecium (GC 4557)) | MIC Enterococcus faecium (GC 4557) (Enterococcus sp.; [11])
1 to 4 µg/mL: MIC Enterococcus faecalis (GC 6189) (Enterococcus sp.; [10]) | MIC Enterococcus faecalis (GC 6189) (Enterococcus sp.; [11])
0.5 to 2 µg/mL: MIC Coagulase Negative Staphylococcus (GC 4547) (Staphylococcus sp.) | MIC Staphylococcus aureus (GC 1131) (Staphylococcus sp.) | MIC Staphylococcus aureus (GC 4541) (Staphylococcus sp.) | MIC Staphylococcus aureus-SMITH (GC 4543) (Staphylococcus sp.)
+: Anatomical Pathology (Day 10), Kidney [2]
32 µg/mL: MIC Escherichia coli (ATCC 25922) (Escherichia coli) | MIC Escherichia coli (GC 4559) (Escherichia coli)
2 to 4 µg/mL: MIC Enterococcus avium (GC 4558) (Enterococcus sp.; Enterococcus avium (GC 4558)) | MIC Enterococcus faecalis (ATCC 29212) (Enterococcus sp.; [3]) | MIC Enterococcus faecalis (GC 2242) (Enterococcus sp.; [4]) | MIC Enterococcus faecalis (GC 2691) (Enterococcus sp.; [5]) | MIC Enterococcus faecalis (GC 3059) (Enterococcus sp.; [6]) | MIC Enterococcus faecalis (GC 4552) (Enterococcus sp.; [7]) | MIC Enterococcus faecalis (GC 4553) (Enterococcus sp.; [8]) | MIC Enterococcus faecalis (GC 4554) (Enterococcus sp.; [9]) | MIC Enterococcus faecium (GC 2243) (Enterococcus sp.; Enterococcus faecium (GC 2243)) | MIC Enterococcus faecium (GC 4556) (Enterococcus sp.; Enterococcus faecium (GC 4556)) | MIC Enterococcus avium (GC 4558) (Enterococcus sp.; [11]) | MIC Enterococcus faecalis (ATCC 29212) (Enterococcus sp.; [11]) | MIC Enterococcus faecalis (GC 2242) (Enterococcus sp.; [11]) | MIC Enterococcus faecalis (GC 2691) (Enterococcus sp.; [11]) | MIC Enterococcus faecalis (GC 3059) (Enterococcus sp.; [11]) | MIC Enterococcus faecalis (GC 4552) (Enterococcus sp.; [11]) | MIC Enterococcus faecalis (GC 4553) (Enterococcus sp.; [11]) | MIC Enterococcus faecalis (GC 4554) (Enterococcus sp.; [11]) | MIC Enterococcus faecium (GC 2243) (Enterococcus sp.; [11]) | MIC Enterococcus faecium (GC 4556) (Enterococcus sp.; [11])
0.5 to 1 µg/mL: MIC Staphylococcus aureus (GC 4545) (Staphylococcus sp.)
<0.06 µg/mL: MIC Streptococcus pneumoniae (ATCC 6301) (Streptococcus sp.; [12]) | MIC Streptococcus pneumoniae (GC 1894) (Streptococcus sp.; [13]) | MIC Streptococcus pneumoniae (GC 4565) (Streptococcus sp.; [14]) | MIC Streptococcus pneumoniae (ATCC 6301) (Streptococcus sp.; [11]) | MIC Streptococcus pneumoniae (GC 1894) (Streptococcus sp.; [11]) | MIC Streptococcus pneumoniae (GC 4565) (Streptococcus sp.; [11])
0: Anatomical Pathology (Day 10), Heart [2]
